Measurements reported in paper PMC9739695, “Water-Soluble Salts Based on Benzofuroxan Derivatives—Synthesis and Biological Activity” (International Journal of Molecular Sciences, 2022).
Read-outs that look alike come from different tables or passages of the source.

Key:
[1] = test system: fungal microflora (mushrooms) on alfalfa seeds; experiment: Growth of fungal microflora on treated alfalfa seeds; format: cell-based; settings: 10 mmol
Experimental: (§1) During phytopathological analyses of agricultural crops, the species composition of fungal and bacterial microflora was established. Laboratory studies were carried out on two nutrient media potato-agar (ingredients: potatoes—200 g; agar-agar—20 g; distilled water—1000 mL.) and potato-dextrose agar (ingredients: potatoes—200 g;dextrose—20 g; agar-agar—20 g; distilled water—1000 mL), according to the guidelines.
When evaluating the effectiveness of treatment of wheat, alfalfa, barley, rice, and sorghum seeds as […], their effect on the suppression of seed infection was evaluated.

SH-SY5Y (neuroblastoma) = experiment: Cell viability, MTT test; format: cell-based, Human; settings: for IC50: Homo sapiens, SH-SY5Y, read-out: IC50 (concentration causing 50% inhibition of cell population growth)
Experimental: (§2) In this work, the cytotoxic potential of the water-soluble salts based on benzofuroxan was determined by the effect of compounds on the survival of the cell tumor origin cultures (SH-SY5Y, Hep2, A549, HeLa) using the MTT test. To understand how the synthesized compounds can influence the healthy microenvironment in the body, the effect of substances on the viability of a normal Hek 293 cell culture was additionally evaluated.
(§3) Human cell cultures of tumor origin—SH-SY5Y (neuroblastoma), HeLa (cervical tumor), Hep-2 (larynx carcinoma), A549 (adenocarcinomic human alveolar basal epithelial cells)—and normal cell line Hek 293 (human embryonic kidneys), provided by the Laboratory of Tumor Cell Genetics of the Scientific Research Institute of Carcinogenesis, N.N. Blokhin National Medical Research Center of Oncology, as well as the Institute of Cytology of the Russian Academy of Sciences, were grown in a nutrient medium DMEM (PanEco, Moscow, Russia) and MEM (PanEco, Moscow, Russia), containing fetal bovine serum (10% by volume) (ThermoFisher Scientific, Paisley, UK), Glutamax (2 mM) (Gibco, Scotland, UK), and penicillin-streptomycin (1% by volume) (PanEco, Moscow, Russia). The cultivation was carried out at 37 °C in a humidified CO2 atmosphere (5%).
(§4) Cell viability was determined by MTT test. Cells were seeded in a 96-well plate in the amount of 1 × 10^4 cells/200µLof complete nutrient medium and cultured at 37 °C in CO2 (5%). After 24 h of incubation, various concentrations of test compounds in the range from 0.1 to 100 μM, were added to the cell cultures, and then the cells were cultured under the same conditions for 24 and 72 h. For each concentration, the experiment was carried out in triplicate.
(§5) All compounds were dissolved in DMSO, then diluted with the medium to the required concentration. […] The DMSO was also added to the control wells in a volume of 1%. After the incubation time, MTT (3-(4,5-dimethylthiazol-2-yl)-2,5-diphenyltetrazolium bromide, 5 mg/mL) was added to each well and plates were additionally incubated for 2 h (until the characteristic color appeared).
(§6) Using a plate analyzer (Cytation3, BioTech Instruments Inc., Winooski, VT, USA), the optical density was determined at 530 nm. The concentration value causing 50% inhibition of cell population growth (IC50) was determined from dose-dependent curves.

[2] = test system: Hek 293 (human embryonic kidneys); experiment: Cell viability, MTT test, normal cell line; format: cell-based; settings: read-out: IC50 (concentration causing 50% inhibition of cell population growth)
Experimental: as §2, §3, §4, §5, §6

[3] = Acute toxicity, single intraperitoneal administration; format: in vivo; settings: male, BDF1 [DBA2 × C57Bl6] hybrid, mouse, in vivo, ip, BDF1 mice, single intraperitoneal administration; for MTD at 14 days: doses given in mg/kg; for LD50 at 14 days: probit analysis
Experimental: To determine LD50, a curve of increasing toxicity was built with increasing dose, based on which the following parameters were additionally determined: MTD, LD16, LD84 and LD100.
In the experiment, clinically healthy animals were used, which were kept in the same conditions with a 12-h light and free access to water and food. Each experimental group included six animals. […] Control animals received 0.9% NaCl solution. Animals were monitored continuously for 4 h on the first day after administration of the test compounds. […] Calculation of toxic doses was performed using probit analysis.

[4] = test system: murine leukemia P388 in BDF1 mice; experiment: Antitumor activity in vivo, transplanted murine leukemia P388; settings: for increase in the average lifespan (ILS): single i.p. injection; for lifespan of animals: single i.p., doses from 1/8 MPD to MPD, control animals all die by day 11
Experimental: The study of the antitumor activity of compounds 4e and 4g was carried out using transplanted experimental murine tumor leukemia P388. In the experiment, concentrations from 1.25 to 10 mg/kg were used for 4e, and from 0.625 to 5 mg/kg for 4g. The concentrations used correspond to values from 1/8 MPD to MPD for the studied compounds.
Studies of antitumor activity were carried out on hybrid male mice BDF1 [DBA2×C57Bl6] weighing from 22 to 24 g. In the experiment, clinically healthy animals were used, which were kept in the same conditions with a 12-h light and free access to water and food. Each experimental group included six animals. Transplantation of mouse leukemia P388 was performed intraperitoneally with a concentration of 10^6 cells in 200μLof 0.9% NaCl solution per animal. Compounds 4e and 4g were dissolved in 0.9% NaCl solution and administered intraperitoneally once in the dose range 1.25–10 mg/kg and 0.625–5 mg/kg, respectively. The compounds were administered the next day after tumor cell transplantation. Control animals received 0.9% NaCl solution. The effectiveness of therapy was assessed by the increase in the average life span (ILS, %) of the animals.

[5] = test system: bacterial microflora on barley seeds; experiment: Growth of bacterial microflora on treated barley seeds; format: cell-based; settings: all studied doses
Experimental: as §1
(§7) When evaluating the effectiveness of treatment of wheat, alfalfa, barley, rice, and sorghum seeds as fungicidal and bactericidal agents with preparation compounds at concentrations of 10, 20, and 40 mmol, their effect on the suppression of seed infection was evaluated.

[6] = test system: bacterial microflora on rice seeds; experiment: Growth of bacterial microflora on treated rice seeds; format: cell-based
Experimental: as §1, §7

CN(C)CCCNc1c([N+](=O)[O-])c(Cl)cc2c1no[n+]2[O-].Cl [4g, 6-chloro-4-(3-(dimethylammonio)propylamino)-5-nitrobenzo[c][1,2,5]oxadiazole 1-oxide chloride]
effect on fungal microflora [1]: positive effect on the suppression of fungal microflora | IC50 (SH-SY5Y (neuroblastoma); 24 h): 20.9 ± 0.82 µM | IC50 (SH-SY5Y (neuroblastoma); 72 h): 17.07 ± 0.03 µM | IC50 ([2]; HEK293, 24 h): 21.9 ± 0.39 µM | IC50 ([2]; HEK293, 72 h): 12 ± 1.12 µM | MTD at 14 days [3]: 5 mg/kg | LD50 at 14 days [3]: 13.8 ± 1.73 mg/kg | increase in the average lifespan (ILS) ([4]; 5 mg/kg): 25% | lifespan of animals [4]: up to 16 days

O=[N+]([O-])c1c(Cl)cc2c(no[n+]2[O-])c1NCCCN1CCOCC1 [4e, 6-chloro-4-(3-(morpholino-4-ium)propylamino)-5-nitrobenzo[c][1,2,5]oxadiazole 1-oxide chloride]
effect on bacterial microflora [5]: slight suppression of the bacterial microflora | effect on bacterial microflora ([6]; 10 mmol): positive effect on the suppression of bacterial microflora | effect on bacterial microflora ([6]; 20 mmol): positive effect on the suppression of bacterial microflora | IC50 (SH-SY5Y (neuroblastoma); 24 h): 24.1 ± 1.22 µM | IC50 (SH-SY5Y (neuroblastoma); 72 h): 20.2 ± 0.72 µM | selectivity index (SH-SY5Y (neuroblastoma); IC50 on neuroblastoma SH-SY5Y with respect to Hek 293, 24 h): more than 4 | IC50 ([2]; HEK293, 24 h): 99 ± 2.09 µM | IC50 ([2]; HEK293, 72 h): 86.5 ± 5.75 µM | MTD at 14 days [3]: 10 mg/kg | LD50 at 14 days [3]: 22 ± 1.33 mg/kg | increase in the average lifespan (ILS) ([4]; 2.5 mg/kg): 28% | lifespan of animals [4]: up to 16 days
